Marks after values point to notes of the source that are not given here.
Experiments:
brain of convulsive mice = format: in vivo, ICR mice; details: carbamazepine 80 mg/kg intragastric daily 7 days; PTZ 80 mg/kg i.p.; n=12
Procedure: (§1) The mice in each group were given intragastric administration daily, for 7 consecutive days. 30 minutes after the last administration, except for the blank control group, the mice in the other groups were injected intraperitoneally with 80 mg/kg of PTZ to induce convulsions in the mice. Each mouse was placed in a separate cage for observation for 30 minutes, and behavioral changes such as stages of seizure, duration, latent period and mortality rate of the mice were recorded.
After completing the behavioral observation determined by the above relevant indicators, experiments were conducted to study the effect of the composition on the contents of NO, Na-K-ATP, Asp, and 5-HT in the brain of convulsive mice. After the behavioral observation was over, the mice were immediately executed, and the brain tissues and the required organs were quickly taken out, weighed, and then the brain tissues were placed in liquid nitrogen and stored in a refrigerator at -80° C. Blood stains on the surface were washed off with pre-cooled saline before measurement. The tissues were then weighed and PBS was added in a volume ratio of 1:9 to fully homogenize the brain tissues. The homogenate was centrifuged at 3000 r/min for 20 minutes. The supernatant was collected as samples for subsequent ELISA test to detect the content of GABA, Glu, NO, Na^+-K^+-ATP, Asp, 5-HT, etc.

[1] = system: PTZ-induced epileptic mice; test: PTZ-induced epilepsy in mice: seizure stage (Racine scale), convulsions, mortality; format: in vivo, ICR mice; details: carbamazepine 80 mg/kg intragastric daily 7 days; PTZ 80 mg/kg i.p.; n=12
From the text: As known to those skilled in the art, pentylenetetrazole (PTZ) is a powerful seizure-inducing agent, and its epileptic model is considered to be one of the ideal models for systemic tonic seizures. PTZ itself has no special neurotoxicity, so it is widely used in the study of epilepsy pathogenesis and the screening of anti-epileptic drugs. When PTZ induces epilepsy in mice, its seizures are characterized by clonic seizures in the initial stage, followed by systemic tonic seizures soon afterwards. PTZ is a central nervous system stimulant that acts on GABA-GABAA receptor system. It promotes the enhancement of the excitatory synaptic facilitation and reduces the release of GABA. This in turn reduces the inhibitory ability, increases the sensitivity to convulsions, and increases the excitability of the central nervous system, thereby inducing EP. According to its seizure characteristics, in this experiment, these two seizure forms were used as indicators and combined with the current Racine scale to analyze their epileptic behavior.
as §1
The Racine scale (see: https://en.wikipedia.org/wiki/Racine_stages) was used to determine the level of epilepsy in mice: • Stage 0: No response; • Stage I: Wet dog shakes, facial twitches, clonus, tremors (such as eye blinking, moustache movements, rhythmic chewing, etc.); • Stage II: Stage I plus rhythmic nodding; • Stage III: Stage II plus forelimb clonus, but no rearing; • Stage IV: Rearing and oblique bilateral falling, or rearing with forelimb clonus; and • Stage V: Imbalance, tipping, twitching of limbs, generalized clonus, generalized tonic seizures, falling, rolling, and loss of postural control.

## NC(=O)N1c2ccccc2C=Cc2ccccc21 [Carbamazepine]
Brain of convulsive mice
  5-HT content in the brain: 14.6 ± 2.6 ng/L
  NO content in the brain: 26.4 ± 2.5 µmol/L
  Na-K-ATP content in the brain: 192.1 ± 5.7 ng/L
[1]
  Duration of convulsions: 165.3 ± 32.5 s
  Latent period of convulsions: 365.2 ± 25.6 s
  Morality rates: 16.7%
  Number of convulsions: 8
  number of seizures, Stage I: 0.9±0.4
  number of seizures, Stage II: 1.4±0.8
  number of seizures, Stage III: 1.5±0.8
  number of seizures, Stage IV: 2.1±1.8
  number of seizures, Stage V: 6.3±2.1
  seizure behavior: number of mice at Stage 0: 1
  seizure behavior: number of mice at Stage I: 3
  seizure behavior: number of mice at Stage II: 3
  seizure behavior: number of mice at Stage III: 2
  seizure behavior: number of mice at Stage IV: 2
  seizure behavior: number of mice at Stage V: 1*
